pIC50: −log10 of the molar value. Where a SMILES comes first, the peptide text is derived from it. Bridges are numbered along the chain shown (N, C = ends). Where no end group is shown, it is not given here. [ ]: non-standard residue; d: D form. Pra = C#CC[C@H](N)C(=O)O

The target of one experiment is T1, human PAC1 receptor (Homo sapiens, UniProt P41586).
T1 construct: SHSY-5Y (human neuroblastoma cell line) and RG-2 (rat glioma cell line) cells endogenously express human and rat PAC1 receptors, respectively; endogenous in cells; host or cells: SHSY-5Y human neuroblastoma cells
T1 sequence (P41586 21-468): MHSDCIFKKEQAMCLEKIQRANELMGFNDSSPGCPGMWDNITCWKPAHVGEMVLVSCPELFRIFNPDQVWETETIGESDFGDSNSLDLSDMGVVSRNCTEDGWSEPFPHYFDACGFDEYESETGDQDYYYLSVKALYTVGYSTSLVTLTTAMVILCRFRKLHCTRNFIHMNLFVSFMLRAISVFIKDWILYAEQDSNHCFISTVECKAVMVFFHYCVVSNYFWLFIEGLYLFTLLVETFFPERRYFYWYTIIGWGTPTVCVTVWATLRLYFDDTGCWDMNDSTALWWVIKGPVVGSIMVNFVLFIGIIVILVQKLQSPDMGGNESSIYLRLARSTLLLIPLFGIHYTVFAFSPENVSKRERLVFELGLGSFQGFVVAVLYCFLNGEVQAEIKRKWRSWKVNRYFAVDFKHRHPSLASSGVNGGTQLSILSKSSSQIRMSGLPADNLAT
Kind of experiment: LANCE Ultra cAMP accumulation antagonist assay in SHSY-5Y cells.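 Further: inhibition of cAMP accumulation evoked by PAC1 agonist at its EC80 in SHSY-5Y cells endogenously expressing receptor, 30 min preincubation then 15 min agonist, TR-FRET readout.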 The format is cell-based.

In a further experiment the target is T2, rat PAC1 receptor (Rattus norvegicus, UniProt P32215).
T2 construct: SHSY-5Y (human neuroblastoma cell line) and RG-2 (rat glioma cell line) cells endogenously express human and rat PAC1 receptors, respectively; endogenous in cells; host or cells: RG-2 rat glioma cells
T2 sequence (P32215 20-523): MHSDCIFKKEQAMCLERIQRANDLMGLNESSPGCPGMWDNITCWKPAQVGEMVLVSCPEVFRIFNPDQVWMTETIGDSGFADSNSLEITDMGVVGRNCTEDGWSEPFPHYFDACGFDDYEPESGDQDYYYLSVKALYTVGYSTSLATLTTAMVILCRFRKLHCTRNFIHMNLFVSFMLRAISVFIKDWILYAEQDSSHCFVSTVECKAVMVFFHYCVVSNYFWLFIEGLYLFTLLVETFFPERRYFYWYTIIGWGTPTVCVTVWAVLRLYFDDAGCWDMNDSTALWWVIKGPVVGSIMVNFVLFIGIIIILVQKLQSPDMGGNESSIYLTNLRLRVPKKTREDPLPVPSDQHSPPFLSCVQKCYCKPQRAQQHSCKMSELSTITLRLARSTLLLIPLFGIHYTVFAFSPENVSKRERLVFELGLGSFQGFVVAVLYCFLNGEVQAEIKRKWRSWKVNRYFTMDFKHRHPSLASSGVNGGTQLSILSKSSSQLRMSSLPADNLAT
Kind of experiment: LANCE Ultra cAMP accumulation antagonist assay in RG-2 cells.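 Further: RG-2 rat glioma cells endogenously expressing PAC1, test peptide preincubated 30 min, then PAC1 agonist added at its EC80 for 15 min, cAMP accumulation read by LANCE Ultra.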 The format is cell-based. In general terms: TR-FRET usually uses a lanthanide donor and a delayed reading to cut background.

For orientation: pIC50 means the negative decadic logarithm of the IC50, by convention in mol/L. A higher pIC50 goes with a small IC50. Regarding “CDATCQFRKAIDDCQKQAHHSNVPGSVFKVCMKQKKKEFKAG-NH2 (disulfide 1-5, 14-31) [compound 211]”, the pIC50 against human PAC1 receptor was 7.00 to 9.00; against rat PAC1 receptor, 9.00 to 11.00.

For “CDATCQFRKAIDDCQKQAHHSNVPGSVFKACMKQKKKEFKAQ (disulfide 1-5, 14-31) [compound 96]”, the pIC50 on human PAC1 receptor was 7.00 to 9.00; at rat PAC1 receptor, 9.00 to 11.00.

For the compound `CC[C@H](C)[C@H](NC(=O)[C@H](C)NC(=O)[C@H](CCCCN)NC(=O)[C@H](CCCNC(=N)N)NC(=O)[C@H](Cc1ccccc1)NC(=O)[C@H](CCC(N)=O)NC(=O)[C@@H]1CSSC[C@H](N)C(=O)N[C@@H](CC(=O)O)C(=O)N[C@@H](C)C(=O)N[C@@H]([C@@H](C)O)C(=O)N1)C(=O)N[C@@H](CC(=O)O)C(=O)N[C@@H](CC(=O)O)C(=O)N[C@H]1CSSC[C@@H](C(=O)N[C@@H](CCSC)C(=O)N[C@@H](CCCCN)C(=O)N[C@@H](CCC(N)=O)C(=O)N[C@@H](CCCCN)C(=O)N[C@@H](CCCCN)C(=O)N[C@@H](CCCCN)C(=O)N[C@@H](CCC(=O)O)C(=O)N[C@@H](Cc2ccccc2)C(=O)N[C@@H](CCCCN)C(=O)N[C@@H](C)C(=O)NCC(=O)N[C@@H](Cc2c[nH]cn2)C(=O)O)NC(=O)[C@H](C)NC(=O)[C@H](CCCCN)NC(=O)[C@H](Cc2ccccc2)NC(=O)[C@H](C(C)C)NC(=O)[C@H](CO)NC(=O)[C@H](CO)NC(=O)[C@H](Cc2c[nH]cn2)NC(=O)[C@H](Cc2ccc(O)cc2)NC(=O)[C@H](C)NC(=O)[C@H](CCC(N)=O)NC(=O)[C@H](CCCNC(=N)N)NC(=O)[C@H](C)NC1=O` [compound 35] (H-CDATCQFRKAIDDCARQAYHSSVFKACMKQKKKEFKAGH-OH; disulfide 1-5, 14-27), the pIC50 against human PAC1 receptor and at rat PAC1 receptor was 9.00 to 11.00 in each case.

For `CC[C@H](C)[C@H](NC(=O)[C@H](C)NC(=O)[C@H](CCCCN)NC(=O)[C@H](CCCNC(=N)N)NC(=O)[C@H](Cc1ccccc1)NC(=O)[C@H](CCC(N)=O)NC(=O)[C@@H]1CSSC[C@H](N)C(=O)N[C@@H](CC(=O)O)C(=O)N[C@@H](C)C(=O)N[C@@H]([C@@H](C)O)C(=O)N1)C(=O)N[C@@H](CC(=O)O)C(=O)N[C@@H](CC(=O)O)C(=O)N[C@H]1CSSC[C@@H](C(=O)N[C@@H](CCSC)C(=O)N[C@@H](CCCCN)C(=O)N[C@@H](CCC(N)=O)C(=O)N[C@@H](CCCCN)C(=O)N[C@@H](CCCCN)C(=O)N[C@@H](CCCCN)C(=O)N[C@@H](CCC(=O)O)C(=O)N[C@@H](Cc2ccccc2)C(=O)N[C@@H](CCCCN)C(N)=O)NC(=O)[C@H](CCC(=O)O)NC(=O)[C@H](CCCCN)NC(=O)[C@H](Cc2ccccc2)NC(=O)[C@H](CO)NC(=O)[C@H](CC(N)=O)NC(=O)[C@H](CO)NC(=O)[C@H](Cc2c[nH]cn2)NC(=O)[C@H](Cc2c[nH]cn2)NC(=O)[C@H](C)NC(=O)[C@H](CCC(N)=O)NC(=O)[C@H](CCCCN)NC(=O)[C@H](CCC(N)=O)NC1=O` [compound 224] (H-CDATCQFRKAIDDCQKQAHHSNSFKECMKQKKKEFK-NH2; disulfide 1-5, 14-27), the pIC50 is 9.00 to 11.00 against human PAC1 receptor and 7.00 to 9.00 against rat PAC1 receptor.

As for “CEATCQFRKAIDDCARQAHHSNVPGSVFKACMKQKKKEWKAGH (disulfide 1-5, 14-31) [compound 11]”, the pIC50 against human PAC1 receptor and at rat PAC1 receptor was 9.00 to 11.00 in each case.

For “CDATCQFRKAIDDCMLFSWHSNVPGSVFKACMKQKKKEFKAG-NH2 (disulfide 1-5, 14-31) [compound 131]”, the pIC50 at human PAC1 receptor and on rat PAC1 receptor was 9.00 to 11.00 in each case.

“CDATCQFRKAIDDCVKQAHHSNVPGSVFKACMKQKKKEFKAGH (disulfide 1-5, 14-31) [SEQ ID NO 94]”: the pIC50 against human PAC1 receptor and on rat PAC1 receptor was 9.00 to 11.00 throughout.

For “CDATCQFRKAIDDCMLLSWHSNVPGSVFKACMKQKKKEFKAG-NH2 (disulfide 1-5, 14-31) [compound 132]”, the values for the pIC50 against human PAC1 receptor and against rat PAC1 receptor were 9.00 to 11.00 and above 11.00, respectively.

Turning to `CC[C@H](C)[C@H](NC(=O)[C@H](C)NC(=O)[C@H](CCCCN)NC(=O)[C@H](CCCNC(=N)N)NC(=O)[C@H](Cc1ccccc1)NC(=O)[C@H](CCC(N)=O)NC(=O)[C@@H]1CSSC[C@H](N)C(=O)N[C@@H](CC(=O)O)C(=O)N[C@@H](C)C(=O)N[C@@H]([C@@H](C)O)C(=O)N1)C(=O)N[C@@H](CC(=O)O)C(=O)N[C@@H](CC(=O)O)C(=O)N[C@H]1CSSC[C@@H](C(=O)N[C@@H](CCSC)C(=O)N[C@@H](CCCCN)C(=O)N[C@@H](CCC(N)=O)C(=O)N[C@@H](CCCCN)C(=O)N[C@@H](CCCCN)C(=O)N[C@@H](CCCCN)C(=O)N[C@@H](CCC(=O)O)C(=O)N[C@@H](Cc2ccccc2)C(=O)N[C@@H](CCCCN)C(=O)N[C@@H](C)C(=O)NCC(=O)N[C@@H](Cc2ccc(O)cc2)C(=O)O)NC(=O)[C@H](C)NC(=O)[C@H](CCCCN)NC(=O)[C@H](Cc2ccccc2)NC(=O)[C@H](C(C)C)NC(=O)[C@H](CO)NC(=O)[C@H](CO)NC(=O)[C@H](Cc2c[nH]cn2)NC(=O)[C@H](C)NC(=O)[C@H](CCC(N)=O)NC(=O)[C@H](CCCCN)NC(=O)[C@H](C)NC1=O` [compound 37] (H-CDATCQFRKAIDDCAKQAHSSVFKACMKQKKKEFKAGY-OH; disulfide 1-5, 14-26), the pIC50 at human PAC1 receptor was 7.00 to 9.00; on rat PAC1 receptor, 9.00 to 11.00.

In the case of “CDATCQFRKAIDECAKQAHHSNVPGSVFKACMKQKKKEFKAG-NH2 (disulfide 1-5, 14-31) [compound 12]”, the values for the pIC50 against human PAC1 receptor and against rat PAC1 receptor were 9.00 to 11.00 and above 11.00, respectively.

In the case of “CDATCQFRKAIDDCVRQAYHSNVPGSVFKACMKQKKKEWKAGH (disulfide 1-5, 14-31) [compound 84]”, the pIC50 on human PAC1 receptor and against rat PAC1 receptor was 9.00 to 11.00 throughout.

For the compound “CDATCQFRKAIDDCWIVAWHSNVPGSVFKACMKQKKKEFKAG-NH2 (disulfide 1-5, 14-31) [compound 73]”, the pIC50 against human PAC1 receptor and against rat PAC1 receptor was 9.00 to 11.00 throughout.

With “CDATCQFRKAIDDCQ[Pra]QAHHSNVPGSVFKACMKQKKKEFKAG-NH2 (disulfide 1-5, 14-31) [compound 33]”, the pIC50 at human PAC1 receptor is 7.00 to 9.00; against rat PAC1 receptor, 9.00 to 11.00.

“CDATCQFRKAIDDCQKQAHHSNVPGSVFKACMKFRRFLWKAG-NH2 (disulfide 1-5, 14-31) [compound 128]”: the pIC50 against human PAC1 receptor and against rat PAC1 receptor was 9.00 to 11.00 throughout.

As to `CC[C@H](C)[C@H](NC(=O)[C@H](C)NC(=O)[C@H](CCCCN)NC(=O)[C@H](CCCNC(=N)N)NC(=O)[C@H](Cc1ccccc1)NC(=O)[C@H](CCC(N)=O)NC(=O)[C@@H]1CSSC[C@H](N)C(=O)N[C@@H](CC(=O)O)C(=O)N[C@@H](C)C(=O)N[C@@H]([C@@H](C)O)C(=O)N1)C(=O)N[C@@H](CC(=O)O)C(=O)N[C@@H](CC(=O)O)C(=O)N[C@H]1CSSC[C@@H](C(=O)N[C@@H](CCSC)C(=O)N[C@@H](CCCCN)C(=O)N[C@@H](CCC(N)=O)C(=O)N[C@@H](CCCCN)C(=O)N[C@@H](CCCCN)C(=O)N[C@@H](CCCCN)C(=O)N[C@@H](CCC(=O)O)C(=O)N[C@@H](Cc2c[nH]c3ccccc23)C(=O)N[C@@H](CCCCN)C(=O)N[C@@H](C)C(=O)NCC(N)=O)NC(=O)[C@H](C)NC(=O)[C@H](CCCCN)NC(=O)[C@H](Cc2ccccc2)NC(=O)[C@H](C(C)C)NC(=O)[C@H](CO)NC(=O)[C@H](CO)NC(=O)[C@H](Cc2c[nH]cn2)NC(=O)[C@H](Cc2ccc(O)cc2)NC(=O)[C@H](C)NC(=O)[C@H](CCC(N)=O)NC(=O)[C@H](CCCNC(=N)N)NC(=O)[C@H](CC(=O)O)NC1=O` [compound 21] (H-CDATCQFRKAIDDCDRQAYHSSVFKACMKQKKKEWKAG-NH2; disulfide 1-5, 14-27), the pIC50 against human PAC1 receptor and on rat PAC1 receptor was 9.00 to 11.00 each time.

Regarding “CDATCQFRKAIDDCFTWAWHSNVPGSVFKACMKQKKKEFKAG-NH2 (disulfide 1-5, 14-31) [compound 74]”, the pIC50 against human PAC1 receptor and at rat PAC1 receptor was 9.00 to 11.00 in each case.

Regarding “CDATCQFRKAIDDCQKQAHHSNVPGSVFKACMLQKKKEFKAG-NH2 (disulfide 1-5, 14-31) [compound 103]”, the pIC50 at human PAC1 receptor was 7.00 to 9.00; against rat PAC1 receptor, 9.00 to 11.00.

As for “CDATCQFRKAIDDCAKQAHHSNVPGSVFKACIKQKKKEFKAG-NH2 (disulfide 1-5, 14-31) [compound 14]”, the pIC50 against human PAC1 receptor and on rat PAC1 receptor was 9.00 to 11.00 in each case.

Take “CDATCQFRKAIDDCDRQAYHSNVPGSVFKACMKQKKKEWKAG-NH2 (disulfide 1-5, 14-31) [compound 144]”: the pIC50 at human PAC1 receptor and on rat PAC1 receptor was 9.00 to 11.00 in each case.

As to “CDATCQFRKAIDDCAKQAHHSNVPGSVFKACMKQKKKEFKAGY (disulfide 1-5, 14-31) [SEQ ID NO 56]”, the negative-log IC50 (pIC50) against human PAC1 receptor and against rat PAC1 receptor was 9.00 to 11.00 each time.

Take “CDATCQFRKAIDDCFTWSWHSNVPGSVFKACMKQKKKEFKAG-NH2 (disulfide 1-5, 14-31) [compound 135]”: the negative-log IC50 (pIC50) at human PAC1 receptor and at rat PAC1 receptor was 9.00 to 11.00 each time.

The values above are taken from patent US20210395313A1, “PEPTIDE PAC1 ANTAGONISTS” (AMGEN INC., priority 2017, published 2021).
